# Reference: US12570675B2, “Boronic acid compounds” (LG CHEM, LTD., priority 2020, dated 2026)
# Target: Proteasome chymotrypsin-like activity (S26 protein from RPMI8226 cells) (Homo sapiens, UniProt P28074)
# Format: biochemical
# Details: S26 protein from RPMI8226 cell extract 2 ug/well, substrate 20 uM, 37° C., 90 minutes; read-out: Proteasome chymotrypsin-like activity inhibition IC50
# In short: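 RPMI8226 myeloma cell lysate (S26 fraction, 20 mM Tris-HCl pH 8.0; 2 ug/well) incubated with compound serially diluted from 10 uM (0.5% DMSO) and 20 uM Suc-LLVY-AMC (chymotrypsin-like) or Z-LLE-AMC (caspase-like) for 90 min at 37 °C. Fluorescence read; IC50 from % of uninhibited signal.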
# Proteasome chymotrypsin-like activity (S26 protein from RPMI8226 cells), sequence (P28074 60-263 limits assumed): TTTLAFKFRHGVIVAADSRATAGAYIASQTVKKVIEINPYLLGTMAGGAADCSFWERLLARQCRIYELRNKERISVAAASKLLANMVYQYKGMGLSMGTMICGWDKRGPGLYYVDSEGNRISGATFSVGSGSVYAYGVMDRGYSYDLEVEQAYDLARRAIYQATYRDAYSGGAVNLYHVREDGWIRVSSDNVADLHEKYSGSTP
row,IC50 [nM],SMILES
1,< 10,"CC(C)C[C@H](NC(=O)C1(Cc2ccccc2)CC(C(C)(C)NC(=O)c2nccc3ccccc23)=NO1)B(O)O (stereo partly drawn) [Example 157, [(1R)-1-[[5-benzyl-3-[1-(isoquinolin-1-carbonylamino)-1-methyl-ethyl]-4H-1,2-oxazol-5-carbonyl]amino]-3-methyl-butyl]boronic acid]"
2,< 100,"CC(C)C[C@H](NC(=O)C1(Cc2ccccc2)CC(C(C)(C)NC(=O)c2cccn3ccnc23)=NO1)B(O)O (stereo partly drawn) [Example 158, ((1R)-1-(5-benzyl-3-(2-(imidazo[1,2-a]pyridin-8-carboxamido)propan-2-yl)-4,5-dihydroisoxazol-5-carboxamido)-3-methylbutyl)boronic acid]"
3,< 10,"Cc1cccnc1C(=O)NCC1=NOC(Cc2ccccc2)(C(=O)N[C@@H](CC(C)C)B(O)O)C1 (stereo partly drawn) [Example 159, ((1R)-1-(5-benzyl-3-((3-methylpicolinamido)methyl)-4,5-dihydroisoxazol-5-carboxamido)-3-methylbutyl)boronic acid]"
4,< 10,"CC(C)C[C@H](NC(=O)C1(Cc2ccccc2)CC(CNC(=O)c2nccnc2N)=NO1)B(O)O (stereo partly drawn) [Example 161, ((1R)-1-(3-((3-aminopyrazin-2-carboxamido)methyl)-5-benzyl-4,5-dihydroisoxazol-5-carboxamido)-3-methylbutyl)boronic acid]"
5,< 10,"CC(C)C[C@H](NC(=O)C1(Cc2ccccc2)CC(CNC(=O)c2cc(F)c(F)cc2Cl)=NO1)B(O)O (stereo partly drawn) [Example 163, ((1R)-1-(5-benzyl-3-((2-chloro-4,5-difluorobenzamido)methyl)-4,5-dihydroisoxazol-5-carboxamido)-3-methylbutyl)boronic acid]"
6,< 10,"CC(C)C[C@H](NC(=O)C1(Cc2ccccc2)CC(CNC(=O)c2cc(F)cnc2Cl)=NO1)B(O)O (stereo partly drawn) [Example 164, ((1R)-1-(5-benzyl-3-((2-chloro-5-fluoronicotinamido)methyl)-4,5-dihydroisoxazol-5-carboxamido)-3-methylbutyl)boronic acid]"
7,< 10,"CC(C)C[C@H](NC(=O)C1(Cc2ccccc2)CC(CNC(=O)c2cnnc3ccccc23)=NO1)B(O)O (stereo partly drawn) [Example 165, ((1R)-1-(5-benzyl-3-((cinnolin-4-carboxamido)methyl)-4,5-dihydroisoxazol-5-carboxamido)-3-methylbutyl)boronic acid]"
8,< 25,"CC(C)C[C@H](NC(=O)C1(Cc2ccccc2)CC(CNC(=O)c2ccnnc2)=NO1)B(O)O (stereo partly drawn) [Example 166, ((1R)-1-(5-benzyl-3-((pyridazin-4-carboxamido)methyl)-4,5-dihydroisoxazol-5-carboxamido)-3-methylbutyl)boronic acid]"
9,< 10,"CC(C)C[C@H](NC(=O)C1(Cc2ccccc2C(F)(F)F)CC(CNC(=O)c2nccc3ccccc23)=NO1)B(O)O (stereo partly drawn) [Example 167, ((1R)-1-(3-((isoquinolin-1-carboxamido)methyl)-5-(2-(trifluoromethyl)benzyl)-4,5-dihydroisoxazol-5-carboxamido)-3-methylbutyl)boronic acid]"
10,< 25,"CC(C)C[C@H](NC(=O)C1(Cc2ccccc2)CC(CNC(=O)c2cocn2)=NO1)B(O)O (stereo partly drawn) [Example 168, ((1R)-1-(5-benzyl-3-((oxazol-4-carboxamido)methyl)-4,5-dihydroisoxazol-5-carboxamido)-3-methylbutyl)boronic acid]"
11,< 25,"CC(C)C[C@H](NC(=O)C1(Cc2ccccc2)CC(CNC(=O)c2ccn[nH]2)=NO1)B(O)O (stereo partly drawn) [Example 169, ((1R)-1-(3-((1H-pyrazol-5-carboxamido)methyl)-5-benzyl-4,5-dihydroisoxazol-5-carboxamido)-3-methylbutyl)boronic acid]"
12,< 10,"CC(C)C[C@H](NC(=O)C1(Cc2ccccc2)CC(CNC(=O)c2ccn(C(C)C)n2)=NO1)B(O)O (stereo partly drawn) [Example 172, ((1R)-1-(5-benzyl-3-((1-isopropyl-1H-pyrazol-3-carboxamido)methyl)-4,5-dihydroisoxazol-5-carboxamido)-3-methylbutyl)boronic acid]"
13,< 25,"Cc1nc(C(=O)NCC2=NOC(Cc3ccccc3)(C(=O)N[C@@H](CC(C)C)B(O)O)C2)co1 (stereo partly drawn) [Example 173, ((1R)-1-(5-benzyl-3-((2-methyloxazol-4-carboxamido)methyl)-4,5-dihydroisoxazol-5-carboxamido)-3-methylbutyl)boronic acid]"
14,< 10,"CC(C)C[C@H](NC(=O)C1(Cc2c(F)cccc2F)CC(CNC(=O)c2nccc3ccccc23)=NO1)B(O)O (stereo partly drawn) [Example 174, ((1R)-1-(5-(2,6-difluorobenzyl)-3-((isoquinolin-1-carboxamido)methyl)-4,5-dihydroisoxazol-5-carboxamido)-3-methylbutyl)boronic acid]"
15,< 10,"CC(C)C[C@H](NC(=O)C1(Cc2cccc(Cl)c2)CC(CNC(=O)c2nccc3ccccc23)=NO1)B(O)O (stereo partly drawn) [Example 175, ((1R)-1-(5-(3-chlorobenzyl)-3-((isoquinolin-1-carboxamido)methyl)-4,5-dihydroisoxazol-5-carboxamido)-3-methylbutyl)boronic acid]"
16,< 25,"CC(C)C[C@H](NC(=O)C1(Cc2ccccc2)CC(CNC(=O)c2ccnn2C)=NO1)B(O)O (stereo partly drawn) [Example 176, ((1R)-1-(5-benzyl-3-((1-methyl-1H-pyrazol-5-carboxamido)methyl)-4,5-dihydroisoxazol-5-carboxamido)-3-methylbutyl)boronic acid]"
17,< 10,"CC(C)C[C@H](NC(=O)C1(Cc2cccc(Cl)c2)CC(CNC(=O)c2cccn3ccnc23)=NO1)B(O)O (stereo partly drawn) [Example 177, ((1R)-1-(5-(3-chlorobenzyl)-3-((imidazo[1,2-a]pyridin-8-carboxamido)methyl)-4,5-dihydroisoxazol-5-carboxamido)-3-methylbutyl)boronic acid]"
18,< 50,"CC(C)C[C@H](NC(=O)C1(C2(c3ccccc3)CC2)CC(CNC(=O)c2nccc3ccccc23)=NO1)B(O)O (stereo partly drawn) [Example 180, ((1R)-1-(3-((isoquinolin-1-carboxamido)methyl)-5-(1-phenylcyclopropyl)-4,5-dihydroisoxazol-5-carboxamido)-3-methylbutyl)boronic acid]"
19,< 50,"CC(C)C[C@H](NC(=O)C1(C2(c3ccccc3)CC2)CC(CNC(=O)c2cccn3ccnc23)=NO1)B(O)O (stereo partly drawn) [Example 181, ((1R)-1-(3-((imidazo[1,2-a]pyridin-8-carboxamido)methyl)-5-(1-phenylcyclopropyl)-4,5-dihydroisoxazol-5-carboxamido)-3-methylbutyl)boronic acid]"
20,< 10,"CC(C)C[C@H](NC(=O)C1(Cc2ccccc2)CC(CNC(=O)c2cc(C(C)C)on2)=NO1)B(O)O (stereo partly drawn) [Example 182, ((1R)-1-(5-benzyl-3-((5-isopropylisoxazol-3-carboxamido)methyl)-4,5-dihydroisoxazol-5-carboxamido)-3-methylbutyl)boronic acid]"
21,< 10,"CC(C)C[C@H](NC(=O)C1(Cc2cc(F)cc(F)c2)CC(CNC(=O)c2nccc3ccccc23)=NO1)B(O)O (stereo partly drawn) [Example 183, ((1R)-1-(5-(3,5-difluorobenzyl)-3-((isoquinolin-1-carboxamido)methyl)-4,5-dihydroisoxazol-5-carboxamido)-3-methylbutyl)boronic acid]"
22,< 10,"CC(C)C[C@H](NC(=O)C1(Cc2ccccc2)CC(CNC(=O)c2c(Cl)cnn2C)=NO1)B(O)O (stereo partly drawn) [Example 184, ((1R)-1-(5-benzyl-3-((4-chloro-1-methyl-1H-pyrazol-5-carboxamido)methyl)-4,5-dihydroisoxazol-5-carboxamido)-3-methylbutyl)boronic acid]"
23,< 10,"COC[C@@H](NC(=O)c1nccc2ccccc12)C1=NOC(Cc2ccccc2)(C(=O)N[C@@H](CC(C)C)B(O)O)C1 (stereo partly drawn) [Example 185, ((1R)-1-(5-benzyl-3-((S)-1-(isoquinolin-1-carboxamido)-2-methoxyethyl)-4,5-dihydroisoxazol-5-carboxamido)-3-methylbutyl)boronic acid]"
24,< 25,"COCCn1nccc1C(=O)NCC1=NOC(Cc2ccccc2)(C(=O)N[C@@H](CC(C)C)B(O)O)C1 (stereo partly drawn) [Example 191, ((1R)-1-(5-benzyl-3-((1-(2-methoxyethyl)-1H-pyrazol-5-carboxamido)methyl)-4,5-dihydroisoxazol-5-carboxamido)-3-methylbutyl)boronic acid]"
25,< 10,"COCC1(C(=O)N[C@@H](CC(C)C)B(O)O)CC(CNC(=O)c2nccc3ccccc23)=NO1 (stereo partly drawn) [Example 192, ((1R)-1-(3-((isoquinolin-1-carboxamido)methyl)-5-(methoxymethyl)-4,5-dihydroisoxazol-5-carboxamido)-3-methylbutyl)boronic acid]"
26,< 10,"CCOCC1(C(=O)N[C@@H](CC(C)C)B(O)O)CC(CNC(=O)c2nccc3ccccc23)=NO1 (stereo partly drawn) [Example 193, ((1R)-1-(5-(ethoxymethyl)-3-((isoquinolin-1-carboxamido)methyl)-4,5-dihydroisoxazol-5-carboxamido)-3-methylbutyl)boronic acid]"
27,< 250,"Cc1cccc(C(=O)N[C@@H](CC(C)C)C2=NOC(Cc3ccccc3)(C(=O)N[C@@H](CC(C)C)B(O)O)C2)n1 (stereo partly drawn) [Example 194, ((1R)-1-(5-benzyl-3-((S)-3-methyl-1-(6-methylpicolinamido)butyl)-4,5-dihydroisoxazol-5-carboxamido)-3-methylbutyl)boronic acid]"
28,< 50,"COC[C@H](NC(=O)c1cccc(C)n1)C1=NOC(Cc2ccccc2)(C(=O)N[C@@H](CC(C)C)B(O)O)C1 (stereo partly drawn) [Example 195, ((1R)-1-(5-benzyl-3-((R)-2-methoxy-1-(6-methylpicolinamido)ethyl)-4,5-dihydroisoxazol-5-carboxamido)-3-methylbutyl)boronic acid]"
29,< 10,"CC(C)C[C@H](NC(=O)C1(Cc2ccccc2)CC(CNC(=O)c2ccnn2C2CCOCC2)=NO1)B(O)O (stereo partly drawn) [Example 197, ((1R)-1-(5-benzyl-3-((1-(tetrahydro-2H-pyran-4-yl)-1H-pyrazol-5-carboxamido)methyl)-4,5-dihydroisoxazol-5-carboxamido)-3-methylbutyl)boronic acid]"
